Assay results as given in ChEMBL document CHEMBL1287663 (Bioorg Med Chem, 2010).

Experiments:
[1] = Inhibition of HDAC
HeLa = assay: Antiproliferative activity against human HeLa cells; format: functional, cell-based
[2] = target: Inosine-5'-monophosphate dehydrogenase 1 (Homo sapiens, UniProt P20839); assay: Inhibition of human IMPDH1 expressed in Escherichia coli strain BL21(DE3) after 60 mins
[3] = target: Inosine-5'-monophosphate dehydrogenase 2 (Homo sapiens, UniProt P12268); assay: Inhibition of human IMPDH2 expressed in Escherichia coli strain BL21(DE3) after 60 mins
Homo sapiens = organism: Homo sapiens; assay: Selectivity ratio of IC50 for human IMPDH1 to IC50 for human IMPDH2
K562 [4] = assay: Cytotoxicity against human K562 cells after 72 hrs by trypan blue exclusion assay; format: functional, cell-based; conditions: K562, 72 h
IMPDH2 = assay: Selectivity ratio of IC50 for human K562 cells to IC50 for human IMPDH2; format: ADME, cell-based; conditions: K562 cells versus IMPDH2 enzyme, read-out: Ratio IC50
K562 [5] = assay: Induction of human K562 cells differentiation assessed as hemoglobin/genomic DNA level at 1 uM after 72 hrs relative to untreated control; format: functional
K562 [6] = assay: Induction of human K562 cells differentiation assessed as hemoglobin/genomic DNA level at 2 uM after 72 hrs relative to untreated control; format: functional
K562 [7] = assay: Induction of human K562 cells differentiation assessed as hemoglobin/genomic DNA level at 4 uM after 72 hrs relative to untreated control; format: functional
K562 [8] = assay: Induction of human K562 cells differentiation assessed as hemoglobin/genomic DNA level at 8 uM after 72 hrs relative to untreated control; format: functional
K562 [9] = assay: Induction of human K562 cells differentiation assessed as hemoglobin/genomic DNA level at 16 uM after 72 hrs relative to untreated control; format: functional
K562 [10] = assay: Induction of human K562 cells differentiation assessed as hemoglobin/genomic DNA level at 32 uM after 72 hrs relative to untreated control; format: functional
K562 [11] = assay: Induction of human K562 cells differentiation assessed as hemoglobin/genomic DNA level at 0.5 uM after 72 hrs relative to untreated control; format: functional
K562 [12] = assay: Induction of human K562 cells differentiation assessed as hemoglobin/genomic DNA level at 0.25 uM after 72 hrs relative to untreated control; format: functional

Inosine-5'-monophosphate dehydrogenase 1, sequence (P20839 whole entry): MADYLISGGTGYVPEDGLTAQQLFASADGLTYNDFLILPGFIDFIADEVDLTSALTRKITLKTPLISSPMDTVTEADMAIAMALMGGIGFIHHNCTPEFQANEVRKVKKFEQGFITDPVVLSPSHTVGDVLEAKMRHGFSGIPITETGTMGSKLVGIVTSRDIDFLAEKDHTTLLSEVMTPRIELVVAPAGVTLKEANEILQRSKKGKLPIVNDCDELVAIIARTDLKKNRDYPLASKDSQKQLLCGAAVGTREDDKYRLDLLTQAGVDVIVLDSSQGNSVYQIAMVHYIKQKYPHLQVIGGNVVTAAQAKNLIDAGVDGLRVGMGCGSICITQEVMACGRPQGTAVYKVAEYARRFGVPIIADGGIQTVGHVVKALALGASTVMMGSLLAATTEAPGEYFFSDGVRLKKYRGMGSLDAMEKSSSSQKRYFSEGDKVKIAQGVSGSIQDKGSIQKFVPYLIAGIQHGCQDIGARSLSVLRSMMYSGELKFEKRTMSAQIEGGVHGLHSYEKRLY

Row | SMILES | IC50 [1] | IC50 (HeLa) | IC50 [2] | IC50 [3] | Ratio IC50 (Homo sapiens) | IC50 (K562 [4]) | selectivity ratio (IMPDH2) | Ratio (K562 [5]) | Ratio (K562 [6]) | Ratio (K562 [7]) | Ratio (K562 [8]) | Ratio (K562 [9]) | Ratio (K562 [10]) | Ratio (K562 [11]) | Ratio (K562 [12])
1 | C/C(=C\Cc1c(O)c(C)c2c(c1O)C(=O)OC2)CCC(=O)O |  |  | 0.15 µM | 0.17 µM | 0.88 | 8.2 µM | 48 | 1.4 | 1.1 | 1.1 |  | 1.8 | 3.1 |  | 
2 | COc1c(C)c2c(c(OC(C)=O)c1C/C=C(\C)CCC(=O)O)C(=O)OC2 |  |  | 4.1 µM | 4.1 µM | 1 | 0.59 µM | 0.14 | 2.9 | 4.2 | 5.3 | 6 |  |  | 1.8 | 
3 | COc1c(C)c2c(c(OC(C)=O)c1C/C=C(\C)CCC(=O)NO)C(=O)OC2 | 0.9 µM | 1.5 µM |  |  |  |  |  |  |  |  |  |  |  |  | 
4 | CCCCCCCCCCCCOc1c(C/C=C(\C)CCC(=O)NO)c(OC)c(C)c2c1C(=O)OC2 | 0.5 µM | 1 µM |  |  |  |  |  |  |  |  |  |  |  |  | 

Second part, led by results:

Row | IC50 [1] | IC50 (HeLa) | IC50 [2] | IC50 [3] | Ratio IC50 (Homo sapiens) | SMILES | IC50 (K562 [4]) | selectivity ratio (IMPDH2) | Ratio (K562 [5]) | Ratio (K562 [6]) | Ratio (K562 [7]) | Ratio (K562 [8]) | Ratio (K562 [9]) | Ratio (K562 [10]) | Ratio (K562 [11]) | Ratio (K562 [12])
5 | 1 µM | 2 µM | 0.35 µM | 0.42 µM | 0.83 | COc1c(C)c2c(c(O)c1C/C=C(\C)CCC(=O)NO)C(=O)OC2 [MYCOPHENOLIC HYDROXAMIC ACID] | 2.1 µM | 5 | 0.8 | 1 | 2.9 | 3.2 | 1.8 | 1.7 |  | 
6 |  |  | 67 µM | 72 µM | 0.93 | COc1c(C)c2c(c(OC)c1C/C=C(\C)CCC(=O)O)C(=O)OC2 | > 50 µM |  |  | 1.2 | 1.1 | 1.1 | 1.4 | 1 |  | 
7 | 0.9 µM | 50 µM |  |  |  | COc1c(C)c2c(c(OC)c1C/C=C(\C)CCC(=O)NO)C(=O)OC2 |  |  |  |  |  |  |  |  |  | 
8 |  |  | 0.019 µM |  |  | COc1c(C)c2c(c(O)c1C/C=C(\C)CCC(=O)O)C(=O)OC2 [MYCOPHENOLIC ACID] |  |  |  |  |  |  |  |  |  | 
9 |  |  | 0.77 µM | 0.79 µM | 0.97 | COc1c(C)c2c(c(O)c1C/C=C(\C)CCCO)C(=O)OC2 | 3.9 µM | 4.9 |  | 0.7 | 1.3 | 2.5 | 3.8 | 4.7 |  | 
10 |  |  | 1.5 µM | 1.4 µM | 1.1 | COC(=O)CC/C(C)=C/Cc1c(O)c2c(c(C)c1OC)COC2=O | 0.73 µM | 0.52 | 2.1 | 3.5 | 4.9 | 5.6 |  |  | 1 | 1
